According to patent EP0705277B1, “PROSTAGLANDIN RECEPTOR EP3 AND DNA ENCODING IT” (MERCK FROSST CANADA INC., priority 1993, dated 1995):

What was measured:
[1] = biological target: T1, hEP3 subtype (hEP3α, hEP3-21 and hEP3-9 isoforms) (Homo sapiens, UniProt P43115); assay: [3H]PGE2 competition binding, value stated across the three hEP3 isoforms
T1 sequence (P43115 1-390): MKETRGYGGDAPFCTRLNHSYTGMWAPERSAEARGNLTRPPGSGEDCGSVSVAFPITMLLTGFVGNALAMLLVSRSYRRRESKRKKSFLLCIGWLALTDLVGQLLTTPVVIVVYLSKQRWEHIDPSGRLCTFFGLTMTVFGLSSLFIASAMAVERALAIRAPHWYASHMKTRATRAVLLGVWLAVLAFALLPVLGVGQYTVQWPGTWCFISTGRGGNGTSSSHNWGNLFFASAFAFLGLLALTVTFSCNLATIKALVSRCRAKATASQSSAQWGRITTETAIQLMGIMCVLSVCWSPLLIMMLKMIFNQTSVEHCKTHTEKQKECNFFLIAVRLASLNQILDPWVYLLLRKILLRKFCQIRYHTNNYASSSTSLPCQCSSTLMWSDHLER
Procedure: (§1) Mammalian cell transfectants are analyzed for both the levels of EP3 receptor activity and levels of EP3 protein by the following methods. Assessing EP3 receptor activity involves the direct introduction of a labelled ligand to the cells and determining the amount of specific binding of the ligand to the EP3-expressing cells. Binding assays for receptor activity are known in the art (Frey et al., 1993, Eur. J. Pharmacol., 244, pp 239-250).
The three cloned forms of the human prostaglandin E receptor EP3 subtype (hEP3a, hEP3-21 and hEP3-9) which differ in the carboxyl terminus region of the encoded protein were individually subcloned into the pcDNAlamp plasmid (Invitrogen) and transfected into COS-M6 cells using the DEAE-dextran method. The cells were maintained in culture for 72 hours, then harvested and membranes prepared by differential centrifugation (1000 x g for 10 minutes, then 100,000 x g for 30 minutes) following lysis of the cells by nitrogen cavitation. […] Incubations were conducted for 1 hour at room temperature prior to separation of the bound and free radioligand by rapid filtration as previously described (Frey et al., 1993).

hEP1 = biological target: T2, hEP1 (Homo sapiens, UniProt P34995); assay: Binding at the hEP1 subtype (comparison value); details: given for comparison
T2 sequence (P34995 1-402): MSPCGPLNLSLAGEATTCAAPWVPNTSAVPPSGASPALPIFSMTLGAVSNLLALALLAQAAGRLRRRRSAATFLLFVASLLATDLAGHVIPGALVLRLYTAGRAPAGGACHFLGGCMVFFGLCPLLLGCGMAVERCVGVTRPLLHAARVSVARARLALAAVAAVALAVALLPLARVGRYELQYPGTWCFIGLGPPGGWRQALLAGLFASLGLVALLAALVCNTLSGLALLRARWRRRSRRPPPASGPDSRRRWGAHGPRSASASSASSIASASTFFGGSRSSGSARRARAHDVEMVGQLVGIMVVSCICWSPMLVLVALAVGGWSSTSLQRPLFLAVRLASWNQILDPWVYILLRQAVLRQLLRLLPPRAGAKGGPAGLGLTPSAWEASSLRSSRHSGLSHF

hEP3α = biological target: T3, hEP3α (Homo sapiens, UniProt P43115); assay: [3H]PGE2 binding assay, membranes of pcDNAIamp-hEP3α transfected COS-M6 cells; details: for fold less active than PGE2: competition for [3H]PGE2 specific binding, relative to PGE2
T3 construct: a 1.9 kb full length human EP3α cDNA clone was plaque-purified; expressed in transfected cells; host or cells: COS-M6 cells (membranes), pcDNAIamp vector
T3 sequence (P43115 1-390): T1 sequence (P43115 1-390)
Procedure: as §1, with “cells.” for “cells. Binding assays for receptor activity are known in the art (Frey et al., 1993, Eur. J. Pharmacol., 244, pp 239-250).”
(§2) The three cloned forms of the human prostaglandin E receptor EP3 subtype (hEP3a, hEP3-21 and hEP3-9) which differ in the carboxyl terminus region of the encoded protein were individually subcloned into the pcDNAlamp plasmid (Invitrogen) and transfected into COS-M6 cells using the DEAE-dextran method. The cells were maintained in culture for 72 hours, then harvested and membranes prepared by differential centrifugation (1000 x g for 10 minutes, then 100,000 x g for 30 minutes) following lysis of the cells by nitrogen cavitation.

hEP3-21 = biological target: T4, hEP3-21 (Homo sapiens, UniProt P43115); assay: [3H]PGE2 binding assay, membranes of pcDNAIamp-hEP3-21 transfected COS-M6 cells; details: for fold less active than PGE2: competition for [3H]PGE2 specific binding, relative to PGE2
T4 construct: both a 1.7 kb full length human EP3-21 cDNA clone and a 1.4 kb full length human EP3-9 cDNA clone; expressed in transfected cells; host or cells: COS-M6 cells (membranes), pcDNAIamp vector
T4 sequence (P43115 1-388 isoform P43115-2): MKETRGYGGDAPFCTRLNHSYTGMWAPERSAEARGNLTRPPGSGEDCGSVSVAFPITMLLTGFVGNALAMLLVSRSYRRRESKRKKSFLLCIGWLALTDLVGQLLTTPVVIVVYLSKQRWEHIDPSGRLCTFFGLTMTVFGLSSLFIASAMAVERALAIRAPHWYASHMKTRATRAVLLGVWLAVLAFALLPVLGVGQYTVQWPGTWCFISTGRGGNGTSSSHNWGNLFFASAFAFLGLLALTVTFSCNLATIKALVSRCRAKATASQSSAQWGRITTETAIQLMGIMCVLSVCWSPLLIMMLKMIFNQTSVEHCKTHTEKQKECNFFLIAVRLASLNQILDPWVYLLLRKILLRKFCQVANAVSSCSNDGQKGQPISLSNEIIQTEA
Procedure: as §1, with “cells.” for “cells. Binding assays for receptor activity are known in the art (Frey et al., 1993, Eur. J. Pharmacol., 244, pp 239-250).”
as §2

hEP3-9 = biological target: T5, hEP3-9 (Homo sapiens, UniProt P43115); assay: [3H]PGE2 binding assay, membranes of hEP3-9 transfected COS-M6 cells; details: for fold less active than PGE2: competition for [3H]PGE2 specific binding, relative to PGE2
T5 construct: both a 1.7 kb full length human EP3-21 cDNA clone and a 1.4 kb full length human EP3-9 cDNA clone; expressed in transfected cells; host or cells: COS-M6 cells (membranes), pcDNAIamp vector
T5 sequence (P43115 1-365 isoform P43115-3): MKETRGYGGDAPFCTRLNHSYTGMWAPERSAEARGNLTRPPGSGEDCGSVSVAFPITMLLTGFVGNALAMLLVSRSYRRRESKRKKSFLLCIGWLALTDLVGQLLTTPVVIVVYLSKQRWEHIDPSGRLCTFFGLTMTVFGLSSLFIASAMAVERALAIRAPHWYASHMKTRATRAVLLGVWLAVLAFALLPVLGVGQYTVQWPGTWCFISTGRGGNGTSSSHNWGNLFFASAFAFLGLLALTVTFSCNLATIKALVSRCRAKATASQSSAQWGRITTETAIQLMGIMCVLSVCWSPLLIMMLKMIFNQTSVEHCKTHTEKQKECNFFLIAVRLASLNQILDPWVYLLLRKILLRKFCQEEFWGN
Procedure: as §1, with “cells.” for “cells. Binding assays for receptor activity are known in the art (Frey et al., 1993, Eur. J. Pharmacol., 244, pp 239-250).”
as §2

thromboxane receptor = biological target: T6, thromboxane receptor (Homo sapiens, UniProt P21731); assay: SQ-29548 binding to 293 cells and membranes transfected with thromboxane-receptor cDNA; details: human embryonic kidney 293 cells and membranes transfected with thromboxane-receptor cDNA
T6 construct: One full-length (≈ 2.9 kb) clone contained extensive 5' and 3' noncoding regions; expressed in transfected cells; host or cells: human embryonic kidney 293 cells and membranes
T6 sequence (P21731 1-343): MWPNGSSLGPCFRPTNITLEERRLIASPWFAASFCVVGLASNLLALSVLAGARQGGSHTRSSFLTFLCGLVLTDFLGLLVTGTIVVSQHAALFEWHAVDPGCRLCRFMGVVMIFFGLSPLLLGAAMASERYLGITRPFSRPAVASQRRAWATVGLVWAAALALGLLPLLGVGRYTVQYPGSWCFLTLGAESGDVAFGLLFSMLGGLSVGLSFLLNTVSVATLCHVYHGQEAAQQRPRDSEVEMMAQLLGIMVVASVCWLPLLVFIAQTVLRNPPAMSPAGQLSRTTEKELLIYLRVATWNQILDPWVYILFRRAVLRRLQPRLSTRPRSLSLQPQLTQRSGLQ
Source text: The thromboxane receptor has been expressed in Xenopus oocytes. It can couple with endogenous signal transduction components to elicit a calcium-activated Cl- current recorded by electrophysiological measurement using the procedure described by Hirata, M. et al., (1991), Nature, 349, pp. 617. Binding studies have been performed with COS-1 cell membranes transfected by thromboxane receptor cDNA using the ligand S-145 (Hirata, M. et al., (1991), Nature, 349, pp. 617). […] This level of expression is at least 5-10 times higher than in platelet membranes. On a per-cell basis assuming a 10% transfection efficiency, we estimate ≈ 10^6 binding sites/tranfected cell as compared to ≈ 1300 sites present on a platelet (Hourani, S.M.O, et al., (1991), Pharmacol. Rev., 43, pp. 243).

Structure (SMILES) | IC50 [1] | fold less active than PGE2 (hEP3α) | fold less active than PGE2 (hEP3-21) | fold less active than PGE2 (hEP3-9) | also measured
CCCCC[C@H](O)/C=C/[C@H]1C(=O)C[C@H](O)[C@@H]1C/C=C\CCCC(=O)O [PGD2] |  | ~2000 fold | ~2000 fold | ~500 fold | 
O=C(O)CCC/C=C\C[C@@H]1[C@H](CNNC(=O)Nc2ccccc2)[C@H]2CC[C@@H]1O2 [SQ-29548] |  |  |  |  | binding (thromboxane receptor): high affinity binding
CCCCC[C@H](O)/C=C/[C@@H]1[C@@H](C/C=C\CCCC(=O)O)[C@@H](O)C[C@H]1O [PGF2α] |  | approximately 200 fold | approximately 200 fold | ~65 fold | 
CCCCC[C@H](O)/C=C/[C@H]1[C@H](O)CC(=O)[C@@H]1CCCCCCC(=O)O [PGE1] |  |  |  |  | IC50 (hEP3α): ~1 nM; IC50 (hEP3-21): ~1 nM; IC50 (hEP3-9): ~1 nM

More lines, main results first:

IC50 [1] | fold less active than PGE2 (hEP3α) | fold less active than PGE2 (hEP3-21) | fold less active than PGE2 (hEP3-9) | Structure (SMILES) | also measured
300 to 1200 nM |  |  |  | CCCCC(C)(O)C/C=C/[C@H]1[C@H](O)CC(=O)[C@@H]1CCCCCCC(=O)OC (mixture of isomers) [misoprostol] | 
2000 to 7000 nM |  |  |  | CC(C)Oc1ccc2c(=O)c3cc(C(=O)O)ccc3oc2c1 [AH6809] | fold less active at the hEP3 subtype as compared with the hEP1 subtype ([1]; hEP3 versus hEP1, in general): 5-10 fold; IC50 (hEP1): 500 nM
